# Test results from PubChem BioAssay AID1963848 (Molecular Pharmacology Branch, DTP, NCI, 2024).
# “And” between values parts separate entries of the source, which are not always exact repeats. Equal values may be shown once.
# System: 379773-124-R-J2-PDC spheroid viability
# Assay: Anticancer human tumor 379773-124-R-J2-PDC patient-derived endometrial carcinoma cell line growth inhibition [POLQ]
# Conditions: spheroids with HUVEC and MSC; for viability, T/C: stronger effect = lower value
# Protocol: Multicellular complex tumor spheroid response to Polymerase (POL) inhibitors (novobiocin, ART-558, RP6685) in combination with a variety of drugs and investigational agents in selected tumor cell lines
# The POL inhibitors (novobiocin, ART-558, and RP6685) were evaluated both individually and in combination with standard of care and investigational anticancer small molecules within a complex spheroid model of solid tumors. . Complex spheroids include a stromal component modeled by human endothelial cells (HUVEC) and fibroblasts modeled by human mesenchymal stem cells (MSCs). The concentration ranges selected for each drug and investigational agent were based upon clinically achievable concentrations if the clinical Cmax of the agent was known.
# Compounds. The drugs and investigational agents: novobiocin (NSC847541), ART-558 (NSC835418), RP-6685 (NSC848927), peposertib (NSC802822), ceralasertib (NSC780249), elimusertib (NSC800525), camonsertib (NSC841442), AZD-1390 (NSC803789), olaparib (NSC753686), talazoparib (NSC767125), rucaparib (NSC756644), sotorasib (NSC818433), MRTX-1133 (NSC836407), SN-38 (NSC673596), topotecan (NSC609699), epotoside (NSC141540), doxorubicin (NSC123127), gemcitabine (NSC613327), 5-fluorouracil (NSC19893), paclitaxel (NSC125973), vemurafenib (NSC761431), MSA-2 (NSC828583), SN-011 (NSC837082), adavosertib (NSC754352), prexasertib (NSC758257), carboplatin (NSC241240) and oxaliplatin (NSC266046), were obtained from the National Cancer Institute (NCI) Developmental Therapeutics Program Chemical Repository (21). The FDA-approved anticancer drug set is available from the Developmental Therapeutics Program at https://dtp.cancer.gov/organization/dscb/obtaining/. […] The stock solutions were prepared in dimethyl sulfoxide (DMSO, Sigma-Aldrich, St. Louis, MO, cat. D2650), except for the platinum compounds which were prepared in saline (Quality Biological, Gaithersburg, MD, cat. 114-055-101), at 800-fold the tested concentration and stored at -70 degrees C prior to their use. All drugs and investigational agents were tested over a range starting from a high concentration at or near the clinical Cmax and decreasing in half-log increments. If the clinical Cmax for an agent had not been determined, the highest concentration tested was 10 microM, except for SN-38, which was tested at a high concentration of 1 microM.
# Cell Culture. All cells were maintained in an incubator at 37 degrees C and 5% CO2 with 95% humidity. The PDC lines were cultured according to standard operating procedures established by the NCI PDMR (https://pdmr.cancer.gov). Table 3 of the manuscript, lists the cell lines along with the number of the three cell types plated to form the mct-spheroids and media for tumor cell growth. After thawing, all PDC lines, except 997537-175-T-J1-PDC and 415267-285-R-J2-PDC, were cultured in Matrigel-coated flasks prepared with a working solution of 1X Ham's F-12 nutrient mix, without supplementation (Thermo Fisher Scientific, cat. 11765054), 100 U/mL penicillin-streptomycin (Thermo Fisher Scientific, cat. 15140122), and 2.5% Matrigel (Corning Inc., Corning, NY, cat. 354248) for the first three passages. The two PDC lines 997537-175-T-J1-PDC and 415267-285-R-J2-PDC were cultured on uncoated flasks. The 857933-349-R-J2-PDC line was cultured in 6C/Colon 1B media containing advanced DMEM/F-12 (Thermo Fisher Scientific, cat. 12634028), 10 mM HEPES (Thermo Fisher Scientific, cat. 15630080), 1X GlutaMAX supplement (Thermo Fisher Scientific, cat. 35050061), 0.1 mg/mL primocin (InvivoGen, San Diego, CA, cat. ant-pm-2), 10% defined fetal bovine serum, heat inactivated (HyClone Laboratories Inc., Logan, UT, cat. SH30070.03HI), 50% L-WRN conditioned media (ATCC, cat. CRL-3276), 1.25 mM N-Acetyl-L-cysteine (Sigma-Aldrich, cat. A9165), 10 mM nicotinamide (Sigma-Aldrich, cat. N0636), 1X B-27 supplement (Thermo Fisher Scientific, cat. 17504044), 1X N-2 supplement (Thermo Fisher Scientific, cat. […]
# [1] = curve of first compound, second compound 0.0316 µM
# [2] = curve of first compound, second compound 0.1 µM
# [3] = curve of first compound, second compound 0.316 µM
# [4] = curve of first compound, second compound 1 µM
# [5] = curve of first compound, second compound 3.16 µM
# [6] = curve of first compound, second compound 10 µM
# [7] = second compound 0.0316 µM, first compound 0.0316 µM
# [8] = second compound 0.0316 µM, first compound 0.1 µM
# [9] = second compound 0.0316 µM, first compound 0.316 µM
# [10] = second compound 0.0316 µM, first compound 1 µM
# [11] = second compound 0.0316 µM, first compound 3.16 µM
# [12] = second compound 0.0316 µM, first compound 10 µM
# [13] = second compound 0.1 µM, first compound 0.0316 µM
# [14] = second compound 0.1 µM, first compound 0.1 µM
# [15] = second compound 0.1 µM, first compound 0.316 µM
# [16] = second compound 0.1 µM, first compound 1 µM
# [17] = second compound 0.1 µM, first compound 3.16 µM
# [18] = second compound 0.1 µM, first compound 10 µM
# [19] = second compound 0.316 µM, first compound 0.0316 µM
# [20] = second compound 0.316 µM, first compound 0.1 µM
# [21] = second compound 0.316 µM, first compound 0.316 µM
# [22] = second compound 0.316 µM, first compound 1 µM
# [23] = second compound 0.316 µM, first compound 3.16 µM
# [24] = second compound 0.316 µM, first compound 10 µM
# [25] = second compound 1 µM, first compound 0.0316 µM
# [26] = second compound 1 µM, first compound 0.1 µM
# [27] = second compound 1 µM, first compound 0.316 µM
# [28] = second compound 1 µM, first compound 1 µM
# [29] = second compound 1 µM, first compound 3.16 µM
# [30] = second compound 1 µM, first compound 10 µM
# [31] = second compound 3.16 µM, first compound 0.0316 µM
# [32] = second compound 3.16 µM, first compound 0.1 µM
# [33] = second compound 3.16 µM, first compound 0.316 µM
# [34] = second compound 3.16 µM, first compound 1 µM
# [35] = second compound 3.16 µM, first compound 3.16 µM
# [36] = second compound 3.16 µM, first compound 10 µM
# [37] = second compound 10 µM, first compound 0.0316 µM
# [38] = second compound 10 µM, first compound 0.1 µM
# [39] = second compound 10 µM, first compound 0.316 µM
# [40] = second compound 10 µM, first compound 1 µM
# [41] = second compound 10 µM, first compound 3.16 µM
# [42] = second compound 10 µM, first compound 10 µM
# 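Also: spheroids exposed to drugs for seven days before readout.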
# 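For viability, T/C in this document: percent viability relative to DMSO vehicle control taken as 100%.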
smiles,measurement,setting,value
O=c1[nH]cc(F)c(=O)[nH]1 + COC1C(OC(N)=O)C(O)C(Oc2ccc3c(O)c(NC(=O)c4ccc(O)c(CC=C(C)C)c4)c(=O)oc3c2C)OC1(C)C,IC50,[1],> 10 µM
same,IC50,[2],> 10 µM
same,IC50,[3],> 10 µM
same,IC50,[4],> 10 µM
same,IC50,[5],> 10 µM
same,IC50,[6],> 10 µM
same,"viability, T/C",[7],85.1%
same,"viability, T/C",[8],83.2%
same,"viability, T/C",[9],85.4%
same,"viability, T/C",[10],80.3%
same,"viability, T/C",[11],69.1%
same,"viability, T/C",[12],51.8%
same,"viability, T/C",[13],90.7%
same,"viability, T/C",[14],88.8%
same,"viability, T/C",[15],81.8%
same,"viability, T/C",[16],86.2%
same,"viability, T/C",[17],68.6%
same,"viability, T/C",[18],61%
same,"viability, T/C",[19],92.7%
same,"viability, T/C",[20],90.4%
same,"viability, T/C",[21],80.9%
same,"viability, T/C",[22],78%
same,"viability, T/C",[23],75.8%
same,"viability, T/C",[24],56.6%
same,"viability, T/C",[25],82.6%
same,"viability, T/C",[26],77.2%
same,"viability, T/C",[27],88.4%
same,"viability, T/C",[28],74.6%
same,"viability, T/C",[29],71.1%
same,"viability, T/C",[30],60.3%
same,"viability, T/C",[31],78.2%
same,"viability, T/C",[32],82.6%
same,"viability, T/C",[33],90.4%
same,"viability, T/C",[34],70.8%
same,"viability, T/C",[35],76.6%
same,"viability, T/C",[36],57.5%
same,"viability, T/C",[37],75.6%
same,"viability, T/C",[38],78.5%
same,"viability, T/C",[39],76.1%
same,"viability, T/C",[40],71%
same,"viability, T/C",[41],70.6%
same,"viability, T/C",[42],55.3%
O=c1[nH]cc(F)c(=O)[nH]1,"viability, T/C",compound 0.0316 µM,99.4% and 89.8% and 84.2%
same,"viability, T/C",compound 0.1 µM,81.4% and 94.1% and 74.5%
same,"viability, T/C",compound 0.316 µM,87.7% and 83.8% and 83.7%
same,"viability, T/C",compound 1 µM,93.3% and 88.7% and 90.6%
same,"viability, T/C",compound 3.16 µM,80.8% (2×) and 87.2%
same,"viability, T/C",compound 10 µM,54.3% and 51.3% and 50.9%
same,IC50,curve of compound,> 10 µM
C#Cc1c(F)ccc2cc(O)cc(-c3ncc4c(N5CC6CCC(C5)N6)nc(OCC56CCCN5CC(F)C6)nc4c3F)c12 (stereo unspecified) + Cc1cccc(N(C)C(=O)C2C(O)CCN2c2nc(C)cc(C(F)(F)F)c2C#N)c1,IC50,[1],> 10 µM
same,IC50,[2],> 10 µM
same,IC50,[3],> 10 µM
same,IC50,[4],> 10 µM
same,IC50,[5],> 10 µM
same,IC50,[6],> 10 µM
same,"viability, T/C",[7],81.5%
same,"viability, T/C",[8],89.3%
same,"viability, T/C",[9],84%
same,"viability, T/C",[10],74.6%
same,"viability, T/C",[11],84%
same,"viability, T/C",[12],82%
same,"viability, T/C",[13],93.8%
same,"viability, T/C",[14],68.7%
same,"viability, T/C",[15],85.8%
same,"viability, T/C",[16],75.2%
same,"viability, T/C",[17],84.8%
same,"viability, T/C",[18],93%
same,"viability, T/C",[19],90.8%
same,"viability, T/C",[20],93.4%
same,"viability, T/C",[21],77.9%
same,"viability, T/C",[22],86.5%
same,"viability, T/C",[23],95.5%
same,"viability, T/C",[24],88.4%
same,"viability, T/C",[25],80%
same,"viability, T/C",[26],78.9%
same,"viability, T/C",[27],73.2%
same,"viability, T/C",[28],82.2%
same,"viability, T/C",[29],95.9%
same,"viability, T/C",[30],90.6%
same,"viability, T/C",[31],78.9%
same,"viability, T/C",[32],87.3%
same,"viability, T/C",[33],85.2%
same,"viability, T/C",[34],80%
same,"viability, T/C",[35],86.2%
same,"viability, T/C",[36],79.4%
same,"viability, T/C",[37],84.9%
same,"viability, T/C",[38],79.7%
same,"viability, T/C",[39],74.2%
same,"viability, T/C",[40],78.4%
same,"viability, T/C",[41],88.9%
same,"viability, T/C",[42],93.8%
